Reference: patent US5208243A, “5-isoquinolinesulfonamides” (Adir et Compagnie, priority 1991, dated 1993)

Tests used:
[1] = system: vasopressor effect of phenylephrine; assay: Cardiovascular reactivity to phenylephrine in wakeful rats, oral administration; format: in vivo, WISTAR rat
Description: After a 30 to 60 min period of stabilization of wakeful WISTAR rats, a range of concentrations of phenylephrine (between 0 and 16 μg/kg) is injected intravenously.
Reading of the mean blood pressure and heart rate is carried out at the point where the pressor effect reaches its maximum. After a washing time of at least 2 hours, the test compound is administered intravenously (10 mg/kg) followed 15 minutes later by a new range of phenylephrine.
b) Effects of the compounds of the invention, administered orally, on the cardiovascular reactivity of phenylephrine.
The procedure is carried out as above but the intravenous administration of the test compounds is replaced by oral administration (5, 10 and 20 mg/kg) of the test compound. The phenylephrine range is repeated 0.5, 1, 2, 3, 4, 5 and 6 hours after administration of the compound.

[2] = system: rabbit aorta; assay: Contraction of rabbit aorta induced by angiotensin II in a medium without calcium; design: species or system New Zealand rabbit; details: Oryctolagus cuniculus, 10^-5 M, medium lacking calcium
Description: (§1) Studies are carried out on rings, 3 mm in length, […] The vascular rings are immersed in a normal physiological solution or in a physiological solution lacking calcium (+0.2 mM of the chelating agent EGTA), which is thermostatically regulated at 37° C. and aerated with a 95% O2 +5% CO2 mixture. The rings are linked to a STATHAM tension sensor (UC2-GOULD). The optimal tension for each vessel is applied and a stabilization period of 90 min is observed for the preparations. b) Antivasoconstrictive activity of the compounds of the invention in a medium without calcium.

[3] = system: guinea pig left auricle; assay: Ouabain intoxication of guinea pig left auricle; details: compound 10^-5 M
[4] = system: isolated heart; assay: Isolated heart subjected to hypoxia-reoxygenation; design: species or system WISTAR rat; details: after 30 minutes of reoxygenation
Description: The heart is removed from WISTAR rats (325-375 g). The heart is rapidly perfused according to the technique of LANGENDORFF at a constant pressure of 101.310^2 Pa and electrically stimulated at 5 Hz. Isovolumetric contractions are recorded by means of a polyethylene ballonet linked to a pressure sensor (P23-GOULD) introduced into the left ventricle and inflated so as to obtain a diastolic pressure of between 6.710^2 and 13.310^2 Pa. c) Protective effect of the compounds of the invention on an isolated heart subjected to hypoxia-reoxygenation. An experimental procedure similar to that described in the preceding test is followed, the ischemia-reperfusion stage being replaced by a 60 min hypoxia produced by the administration of a 95% N2 +5% CO2 gaseous mixture during this period and followed by a 30 min reoxygenation. The test compounds are incubated for 15 min before and during the period of hypoxia.

[5] = system: rabbit aortas; assay: Contraction of rabbit aortas induced by noradrenaline in a medium without calcium; design: species or system New Zealand rabbit; details: Oryctolagus cuniculus, 0.5 h, rabbit aorta, incubated 30 minutes
Description: as §1

Compound: CN(CC1CCN(CCCOc2ccc(F)cc2)CC1)S(=O)(=O)c1cccc2cnccc12.Cl.Cl [Example 17, N-Methyl-N-{[1-[3-(p-fluorophenoxy)propyl]-4-piperidyl]methyl}-5-isoquinolinesulfonamide dihydrochloride]
- reduction of the vasopressor effect of phenylephrine ([1]; 20 mg/kg oral, maximum after 2 hours): 60%
- time of appearance of the inhibitory activity ([1]; after oral administration): 30 min
- time of maximum inhibitory activity ([1]; after oral administration, 20 mg/kg): 2 h
- duration for which the inhibitory activity remains stable ([1]; oral): 6 h
- inhibition at 10 µM [2]: 21%
- % contraction ([3]; 10 min): 201.5 ± 31.5%
- Contracture (%) ([3]; 15 min): 0%
- % contraction ([3]; 30 min): 186.5 ± 46%
- Contracture (%) ([3]; 30 min): 2.5 ± 2.5%
- % contraction ([3]; 60 min): 179 ± 44%
- Contracture (%) ([3]; 60 min): 5 ± 3.3%
- increase of the contraction relative to the control hearts [4]: more than 100%
- inhibition at 1 µM ([5]; compound 10^-6 M): 90%
- inhibition at 0.1 µM ([5]; compound 10^-7 M): 40%
